This passage reports IC50 and Emax results from patent US12365692B2, “6-hydroxy-8-oxatricyclo[3.2.1.02,4]octane-2-carboxamide derivatives for inducing chondrogenesis for treating joint damage” (NOVARTIS AG, priority 2018, dated 2025).

This test has as its system ALP in NHAC (normal human articular chondrocytes). Nature of the test: Alkaline Phosphatase (ALP) activity assay: ALP staining and quantitation in NHACs (prevention of chondrocyte hypertrophy). In kind it is cell-based. The conditions noted are these: Chondrocyte, 288 h, human IL-1 beta 10 ng/mL, 12 days; for IC50: Fast Blue RR staining, high content imaging; for Emax: read-out: ALP in NHAC (% Efficacy). On the procedure:
The compounds of the present invention were evaluated in the Alkaline Phosphatase (ALP) activity assay to determine the ability of the compounds to prevent chondrocyte hypertrophy in normal human articular chondrocytes (NHACs).
Normal human articular chondrocytes (NHACs) were purchased from PromoCell (Heidelberg, Germany) and grown in Chondrocyte Growth Medium (CGM; Lonza, Walkersville, Md.).
NHACs were expanded in Chondrocyte Growth Medium (CGM) from Lonza until they reached a 60-80% confluency. To initiate differentiation, 7,500 cells were plated/well with indicated test compound dose in 384-well Cell Carrier Ultra plates (Perkin Elmer) with DMEM (SH30022—HyClone) containing 10% FBS (35-015-CV—Corning), 1% Pen/Strep antibiotics (SV30010—HyClone), and 1% Normocin (50 mg/mL—InvivoGen). Cells with test compounds were incubated at 37° C., 5% CO2 for 5 hours and then added human IL-1 beta (AF-200-1B—Peprotech) to each well at a final concentration of 10 ng/mL and incubated at 37° C., 5% CO2 for 12 days.
To detect the presence of hypertrophic cells, NHACs were fixed with 4% paraformaldehyde and Hoechst 33342 (Invitrogen) dye for 30 minutes, rinsed in PBS, then stained with Fast Blue RR Salt (F0500—Sigma) with Naphthol AS-MX Phosphate Alkaline Solution, 0.25% (855—Sigma-Aldrich).
The staining was imaged by fluoresecent microscopy, using the 561 nm wavelength, and/or quantified by high content imaging with the ImageXpress Confocal (Molecular Devices, Sunnyvale, CA). Data analyses were performed with a customized multiwavelength cell-scoring application The activity of the compounds of the present invention in the ALP assay is summarized in Table 2.

As for `Cn1cc([C@@]23C[C@]2(C(=O)Nc2ccc(C(F)(F)F)c(F)c2)[C@H]2C[C@H](O)[C@@H]3O2)c(C(F)(F)F)n1` (racemic) [Example 41, rac-(1R,2R,4S,5R,6S)-N-(3-fluoro-4-(trifluoromethyl)phenyl)-6-hydroxy-4-(1-methyl-3-(trifluoromethyl)-1H-pyrazol-4-yl)-8-oxatricyclo[3.2.1.02,4]octane-2-carboxamide], 3.1 µM corresponded to half-maximal inhibition (IC50) and the Emax amounted to 84%.

In the case of `Cn1cc([C@@]23C[C@]2(C(=O)Nc2ccc(C(F)(F)F)cc2)[C@H]2C[C@H](O)[C@@H]3O2)c(C(F)(F)F)n1` (racemic) [Example 42, rac-(1R,2R,4S,5R,6S)-6-hydroxy-4-(1-methyl-3-(trifluoromethyl)-1H-pyrazol-4-yl)-N-(4-(trifluoromethyl)phenyl)-8-oxatricyclo[3.2.1.02,4]octane-2-carboxamide], the IC50 – broadly, the concentration that inhibits the measured activity by half – was > 30 µM and the Emax was determined as 46%.

On to `Cn1cc([C@@]23C[C@]2(C(=O)Nc2cc(C(F)(F)F)ccn2)[C@H]2C[C@H](O)[C@@H]3O2)c(C(F)(F)F)n1` (racemic) [Example 43, rac-(1R,2R,4S,5R,6S)-6-hydroxy-4-(1-methyl-3-(trifluoromethyl)-1H-pyrazol-4-yl)-N-(4-(trifluoromethyl)pyridin-2-yl)-8-oxatricyclo[3.2.1.02,4]octane-2-carboxamide], for which the concentration for half-maximal inhibition (IC50) was > 30 µM and the Emax was determined as 49%.

Consider `Cn1cc([C@@]23C[C@]2(C(=O)Nc2cc(C(F)(F)F)cc(Cl)n2)[C@H]2C[C@H](O)[C@@H]3O2)c(C(F)(F)F)n1` (racemic) [Example 44, rac-(1R,2R,4S,5R,6S)—N-(6-chloro-4-(trifluoromethyl)pyridin-2-yl)-6-hydroxy-4-(1-methyl-3-(trifluoromethyl)-1H-pyrazol-4-yl)-8-oxatricyclo[3.2.1.02,4]octane-2-carboxamide], for which the half-maximal inhibitory concentration (IC50) is > 30 µM and the Emax was found to be 37%.

For the molecule `Cn1cc([C@@]23C[C@]2(C(=O)Nc2cc(C(F)(F)F)c(Cl)cn2)[C@H]2C[C@H](O)[C@@H]3O2)c(C(F)(F)F)n1` (racemic) [Example 45, rac-(1R,2R,4S,5R,6S)—N-(5-chloro-4-(trifluoromethyl)pyridin-2-yl)-6-hydroxy-4-(1-methyl-3-(trifluoromethyl)-1H-pyrazol-4-yl)-8-oxatricyclo[3.2.1.02,4]octane-2-carboxamide], the IC50 was > 30 µM and the Emax was 46%.

In the case of `Cn1cc([C@@]23C[C@]2(C(=O)Nc2cc(C(F)(F)F)cc(C4CC4)n2)[C@H]2C[C@H](O)[C@@H]3O2)c(C(F)(F)F)n1` (racemic) [Example 46, rac-(1R,2R,4S,5R,6S)—N-(6-cyclopropyl-4-(trifluoromethyl)pyridin-2-yl)-6-hydroxy-4-(1-methyl-3-(trifluoromethyl)-1H-pyrazol-4-yl)-8-oxatricyclo[3.2.1.02,4]octane-2-carboxamide], the IC50 turned out to be 27 µM and the Emax is 82%.

Take `Cc1cc(C(F)(F)F)cc(NC(=O)[C@]23C[C@@]2(c2cn(C)nc2C(F)(F)F)[C@H]2O[C@@H]3C[C@@H]2O)n1` (racemic) [Example 47, rac-(1R,2R,4S,5R,6S)-6-hydroxy-4-(1-methyl-3-(trifluoromethyl)-1H-pyrazol-4-yl)-N-(6-methyl-4-(trifluoromethyl)pyridin-2-yl)-8-oxatricyclo[3.2.1.02,4]octane-2-carboxamide]: the IC50 was > 30 µM and the Emax came out at 36%.

As to `CCOc1cc(C(F)(F)F)cc(NC(=O)[C@]23C[C@@]2(c2cn(C)nc2C(F)(F)F)[C@H]2O[C@@H]3C[C@@H]2O)n1` (racemic) [Example 48, rac-(1R,2R,4S,5R,6S)—N-(6-ethoxy-4-(trifluoromethyl)pyridin-2-yl)-6-hydroxy-4-(1-methyl-3-(trifluoromethyl)-1H-pyrazol-4-yl)-8-oxatricyclo[3.2.1.02,4]octane-2-carboxamide], the IC50 was > 30 µM and the Emax was found to be 40%.

For the molecule `Cn1cc([C@@]23C[C@]2(C(=O)Nc2cccc(C(F)(F)F)c2)[C@H]2C[C@H](O)[C@@H]3O2)c(C(F)(F)F)n1` (racemic) [Example 49, rac-(1R,2R,4S,5R,6S)-6-hydroxy-4-(1-methyl-3-(trifluoromethyl)-1H-pyrazol-4-yl)-N-(3-(trifluoromethyl)phenyl)-8-oxatricyclo[3.2.1.02,4]octane-2-carboxamide], the half-inhibitory concentration (IC50) is > 30 µM and the Emax was 35%.

As to `Cc1c(NC(=O)[C@]23C[C@@]2(c2cn(C)nc2C(F)(F)F)[C@H]2O[C@@H]3C[C@@H]2O)cccc1C(F)(F)F` (racemic) [Example 50, rac-(1R,2R,4S,5R,6S)-6-hydroxy-4-(1-methyl-3-(trifluoromethyl)-1H-pyrazol-4-yl)-N-(2-methyl-3-(trifluoromethyl)phenyl)-8-oxatricyclo[3.2.1.02,4]octane-2-carboxamide], the IC50 was > 30 µM and the Emax was found to be 33%.

As to `Cc1ccc(NC(=O)[C@]23C[C@@]2(c2cn(C)nc2C(F)(F)F)[C@H]2O[C@@H]3C[C@@H]2O)cc1C(F)(F)F` (racemic) [Example 51, rac-(1R,2R,4S,5R,6S)-6-hydroxy-4-(1-methyl-3-(trifluoromethyl)-1H-pyrazol-4-yl)-N-(4-methyl-3-(trifluoromethyl)phenyl)-8-oxatricyclo[3.2.1.02,4]octane-2-carboxamide], the IC50 is > 30 µM and the Emax amounted to 45%.

For `Cc1cc(NC(=O)[C@]23C[C@@]2(c2cn(C)nc2C(F)(F)F)[C@H]2O[C@@H]3C[C@@H]2O)cc(C(F)(F)F)c1` (racemic) [Example 52, rac-(1R,2R,4S,5R,6S)-6-hydroxy-4-(1-methyl-3-(trifluoromethyl)-1H-pyrazol-4-yl)-N-(3-methyl-5-(trifluoromethyl)phenyl)-8-oxatricyclo[3.2.1.02,4]octane-2-carboxamide], it took 21 µM to reach half-maximal inhibition (IC50) and the Emax turned out to be 70%.

Take `Cc1ccc(C(F)(F)F)cc1NC(=O)[C@]12C[C@@]1(c1cn(C)nc1C(F)(F)F)[C@H]1O[C@@H]2C[C@@H]1O` (racemic) [Example 53, rac-(1R,2R,4S,5R,6S)-6-hydroxy-4-(1-methyl-3-(trifluoromethyl)-1H-pyrazol-4-yl)-N-(2-methyl-5-(trifluoromethyl)phenyl)-8-oxatricyclo[3.2.1.02,4]octane-2-carboxamide]: the IC50 was > 30 µM and the Emax turned out to be 23%.

`Cn1cc([C@@]23C[C@]2(C(=O)Nc2cccc(C(F)(F)F)c2F)[C@H]2C[C@H](O)[C@@H]3O2)c(C(F)(F)F)n1` (racemic) [Example 54, rac-(1R,2R,4S,5R,6S)—N-(2-fluoro-3-(trifluoromethyl)phenyl)-6-hydroxy-4-(1-methyl-3-(trifluoromethyl)-1H-pyrazol-4-yl)-8-oxatricyclo[3.2.1.02,4]octane-2-carboxamide]: the IC50 was > 30 µM and the Emax is 7%.

On to `Cn1cc([C@@]23C[C@]2(C(=O)Nc2ccc(F)c(C(F)(F)F)c2)[C@H]2C[C@H](O)[C@@H]3O2)c(C(F)(F)F)n1` (racemic) [Example 55, rac-(1R,2R,4S,5R,6S)-N-(4-fluoro-3-(trifluoromethyl)phenyl)-6-hydroxy-4-(1-methyl-3-(trifluoromethyl)-1H-pyrazol-4-yl)-8-oxatricyclo[3.2.1.02,4]octane-2-carboxamide], for which the IC50 was > 30 µM and the Emax came to 14%.

With `Cn1cc([C@@]23C[C@]2(C(=O)Nc2cc(F)cc(C(F)(F)F)c2)[C@H]2C[C@H](O)[C@@H]3O2)c(C(F)(F)F)n1` (racemic) [Example 56, rac-(1R,2R,4S,5R,6S)—N-(3-fluoro-5-(trifluoromethyl)phenyl)-6-hydroxy-4-(1-methyl-3-(trifluoromethyl)-1H-pyrazol-4-yl)-8-oxatricyclo[3.2.1.02,4]octane-2-carboxamide], the IC50 was > 30 µM and the Emax is 30%.

Consider `Cn1cc([C@@]23C[C@]2(C(=O)Nc2cc(C(F)(F)F)ccc2F)[C@H]2C[C@H](O)[C@@H]3O2)c(C(F)(F)F)n1` (racemic) [Example 57, rac-(1R,2R,4S,5R,6S)-N-(2-fluoro-5-(trifluoromethyl)phenyl)-6-hydroxy-4-(1-methyl-3-(trifluoromethyl)-1H-pyrazol-4-yl)-8-oxatricyclo[3.2.1.02,4]octane-2-carboxamide], for which the IC50 is > 30 µM and the Emax was determined as 24%.

As to `Cn1cc([C@@]23C[C@]2(C(=O)Nc2ccc(Cl)c(C(F)(F)F)c2)[C@H]2C[C@H](O)[C@@H]3O2)c(C(F)(F)F)n1` (racemic) [Example 58, rac-(1R,2R,4S,5R,6S)—N-(4-chloro-3-(trifluoromethyl)phenyl)-6-hydroxy-4-(1-methyl-3-(trifluoromethyl)-1H-pyrazol-4-yl)-8-oxatricyclo[3.2.1.02,4]octane-2-carboxamide], the IC50 is > 30 µM and the Emax is 29%.
